Reference: patent US20210207099A1, “METHODS AND COMPOSITIONS FOR GENERATING CELLS OF ENDODERMAL LINEAGE AND BETA CELLS AND USES THEREOF” (priority 2018, published 2021)

Assays:
Assay type in all cases: cell-based, human
[1] = tested on: HUES8 cells, intestinal differentiation protocol; assay: Intestine differentiation with cytoskeletal compounds; settings: 1 μM for the entirety of stage 2
Procedure: (§1) For differentiation to other endodermal lineages, HUES8 stem cells were cultured and passaged normally. Differentiations were initiated 24 hours after seeding 24-well plates at 0.521×10^6 cells/cm^2. Protocols for exocrine pancreas, intestine, and liver were adapted, from literature. Either latrunculin A or nocodazole were added as indicated in each protocol. All three differentiation protocols used the same stage 1 to induce endoderm. Stage 1 (4 days): BE1 media+100 ng/mL Activin A+3 μM CHIR99021 for the first 24 hours, followed with 3 days of BE1 containing 100 ng/mL Activin A only.
Intestine Differentiation: Stage 2 (4 days): BE2 media+3 μM CHIR99021+500 ng/mL FGF4 (R&D Systems, 235-F4). Either 1 μM latrunculin A was added for the first 24 hours of this stage, or 1 μM nocodazole was added for the entirety of stage 2. Stage 3 (7 days): BE3 media+500 ng/mL R-spondin1 (R&D Systems, 4645-RS)+100 ng/mL EGF (R&D Systems, 236-EG)+200 nM LDN193189.

[2] = tested on: HUES8 cells, hepatic differentiation protocol; assay: Liver differentiation with cytoskeletal compounds; settings: 1 μM for the first 24 hours of stage 3
Procedure: as §1
Liver Differentiation: Stage 2 (2 days): BE2 media+50 ng/mL KGF. Stage 3 (4 days): BE3 media+10 ng/mL bFGF+30 ng/mL BMP4 (R&D Systems, 314-BP). For the first 24 hours only, 2 μM retinoic acid and either 1 μM latrunculin A or 1 μM nocodazole were added. Stage 4 (5 days): BE3 media+20 ng/mL OSM (R&D Systems, 295-OM)+20 ng/mL HGF (R&D Systems, 294-HG)+100 nM dexamethasone (MilliporeSigma, D4902).

[3] = tested on: plated pancreatic progenitors; assay: Single-cell RNA sequencing of plated pancreatic progenitors treated throughout stage 4; settings: 5 μM nocodazole throughout stage 4
Procedure: Cells generated with the suspension protocol were single-cell dispersed with TrypLE from clusters at the end of stage 3 and seeded onto collagen 1 coated 24-well plates at 0.625×10^6 cells/cm^2. Either 0.5 μM latrunculin A or 5 μM nocodazole were added throughout the entirety of stage 4. At the end of stage 4, cells were single-cell dispersed, suspended in DMEM, and submitted to the Washington University Genome Technology Access Center. Library preparation was done using the Chromium Single Cell 3′ Library and Gel Bead Kit v2 (10× Genomics, 120237). Briefly, single cells were isolated in emulsions using a microfluidic platform, and each single cell emulsion was barcoded with a unique set of oligonucleotides. The GemCode Platform was used to carry out reverse transcription within each single cell emulsion, which was amplified to construct a library. The libraries were sequenced with paired-end reads of 26×98 primerbp using the Illumina HiSeq2500.
Seurat v2.0 was used to perform single cell RNA analyses. Duplicate cells and cells with high mitochondrial gene expression were filtered out using FilterCells (>9000 total genes and >5% mitochondrial genes for Untreated Control, >6000 genes and >6% mitochondrial genes for latrunculin A, >12000 genes and >4% mitochondrial genes for nocodazole). Each data set was normalized using global-scaling normalization. FindVariableGenes identified and removed outlier genes using scaled z-score dispersion. The datasets were then combined and a canonical correlation analysis (CCA) was performed with RunMultiCCA. AlignSubspace was used to align the CCA subspaces and generated a new dimension reduction for integrated analysis. Unsupervised TSNE plots were generated using RunTSNE, and the resulting clusters were defined and labeled using FindMarkers. VInPlot (Violin plots) and FeaturePlot (tsne plots) were used to visualize differences in gene expressions across each cluster and conditions.

[4] = tested on: HUES8 cells, exocrine differentiation protocol; assay: Exocrine pancreas differentiation with cytoskeletal compounds; settings: 1 μM for the entirety of stage 4
Procedure: as §1
Exocrine Pancreas: Stage 2 (2 days): BE2 media+50 ng/mL KGF. Stage 3 (2 days): BE3+50 ng/mL KGF, 200 nM LDN193189, 500 nM TPPB, 2 μM retinoic acid, and 0.25 μM SANT1. Stage 4 (4 days): BE3+50 ng/mL KGF, 200 nM LDN193189, 500 nM TPPB, 0.1 μM retinoic acid, and 0.25 μM SANT1. Either 1 μM latrunculin A was added for the first 24 hours of this stage, or 1 μM nocodazole was added for the entirety of stage 4. Stage 5 (6 days): S5 media+10 ng/mL bFGF. 10 mM nicotinamide (MilliporeSigma, 72340) was added for the last two days.

[5] = tested on: TGFβ signaling (phosphorylated SMAD); assay: Western blot of SMAD 2/3 phosphorylation in Stage 6 cells; settings: lesser extent than Alk5i
Procedure: Protein was extracted from cell clusters after washing with PBS by placing in western blot lysis buffer consisting 50 mM HEPES, 140 mM NaCl (MilliporeSigma; 7647-14-5), 1 mM EDTA (MilliporeSigma, 1233508), 1% Triton X-100, 0.1% Na-deoxycholate (MilliporeSigma: D6750), 0.1% SDS (ThermoScientific; 24730020), 1 mM Na3VO4 (MilliporeSigma; 450243), 10 mM NaF (MilliporeSigma; S7920), and 1% Protease Inhibitor Cocktail (MilliporeSigma; p8340), incubating on a shaker for 15 min at 4° C., and centrifuging at 10000 RCF for 10 min at 4° C. Protein amount was quantified with the Pierce BCA Protein Assay (Thermo Scientific; 23228). Protein (30 μg) was loaded onto a 4-20% gradient polyacrylamide gel (Invitrogen; SP04200BOX), resolved by electrophoresis, and transferred onto a 0.45 μm nitrocellulose membrane (BioRad; 1620115). The nitrocellulose membrane was blocked with Blotting Grade Blocker (BioRad; 170-6404) and incubated with rabbit-anti-phospho-SMAD⅔ 1:1000 (Cell Signaling Technologies; 8828) and rabbit-anti-Actin 1:1000 (Santa Cruz Biotechnology; SC1616) antibodies in blocker overnight at 4° C. Membrane was washed and stained with rabbit secondary antibody 1:2500 (Jackson Immuno Research Laboratories; 211-032-171) in blocker for 2 hr at 4° C. and developed using SuperSignal West Femto (Thermo Scientific; 34096). Images were taken on an Odyssey FC (Li-COR). After imaging, the nitrocellulose membrane was stripped using Restore Western Blot Stripping Buffer (Thermo Scientific; 21059), incubated with rabbit-anti-SMAD⅔ (Cell Signaling Technologies; 8685) antibody overnight at 4° C., washed and stained with rabbit secondary antibody 1:2500 in blocker for 2 hr 4° C., developed using SuperSignal West Femto, and imaged using the Odyssey FC.

[6] = tested on: TGFBR1; assay: Lentiviral shRNA knockdown of TGFBR1 in Stage 6 cells; settings: real-time PCR
Procedure: TBP was used as a normalization gene.
pLKO.1 TRC plasmids containing shRNA sequences contained the following sequences: shRNA GFP, […] (SEQ ID NO: 89); shRNA TGFBR1 #1, […] (SEQ ID NO: 90); shRNA TGFBR1 #2, […] (SEQ ID NO: 91). Lentivirus particles were generated and titered using pMD-Lgp/RRE and pCMV-G, and RSV-REV packaging plasmids to contain shRNA. Stage 6 Day 1 cells were single cell dispersed using TrypLE, and 3 million cells were seeded in 4 mL ESFM lentivirus particles at MOI 3-5 on the shaker. Transduced cells were washed with fresh ESFM 16 hr post transduction. RNA extraction and static GSIS was performed on stage 6 day 13.

COC(=O)Nc1nc2ccc(C(=O)c3cccs3)cc2[nH]1 [nocodazole]
CDX2 gene expression and immunostaining [1]: greatly increased CDX2 gene expression and immunostaining
hepatocyte gene expression [2]: increased hepatocyte gene expression
immunostaining for albumin [2]: more abundant with nocodazole treatment
percentage of exocrine-like progenitors [3]: 67.0%
endocrine induction [4]: inhibited endocrine induction
trypsin gene expression (PRSS1, PRSS2) and immunostaining [4]: greatly increased trypsin gene expression

TGFBR1 #2: lentivirus carrying shRNA against TGFBR1, GCAGGATTCTTTAGGCTTTAT (SEQ ID NO: 91)
SMAD phosphorylation after shRNA transduction [5]: reduced SMAD phosphorylation
TGFBR1 transcript compared to control virus targeting GFP [6]: reducing TGFBR1 transcript

TGFBR1 #1: lentivirus carrying shRNA against TGFBR1, GATCATGATTACTGTCGATAA (SEQ ID NO: 90)
SMAD phosphorylation after shRNA transduction [5]: reduced SMAD phosphorylation
TGFBR1 transcript compared to control virus targeting GFP [6]: reducing TGFBR1 transcript
